Patent publication US9233954B2, “Organic amine salts of Azilsartan, preparation method and use thereof” (Jiangsu Hansoh Pharmaceutical Co., Ltd., priority 2011, dated 2016)
Like-named read-outs stand apart in the source and are kept apart here.

Tested on: Beagle dog
Type: in vivo
Conditions: for Clinical observations: intragastric
Excerpt: Acute Toxicity Test Research for Beagle Dog
Object: Approximate lethal dose method was introduced in the test to observe the acute toxicity response of the animals by intragastric administration of example 2 or Azilsartan medoxomil potassium salt to Beagle dogs to study the toxicity situation of example 2 after administration and compare the toxicity of example 2 and Azilsartan medoxomil potassium salt, which can provide reference confirmation for the evaluation of toxicity of example 2.
Method (approximate lethal dose method): 6 Beagle dogs were used, 3 for each of example 2 group and Azilsartan medoxomil potassium salt group. The administration dosage was 0.09, 0.13, 0.19, 0.28, 0.42, 0.63, 0.95, 1.42, 2.13, 3.20 g·kg^−1 respectively, wherein 3.20 g·kg^−1 was the maximum administration dosage (corresponding to 1081 times the given dosage for the clinical patient). The blood was collected before administration and on days 2, 7, and 14 after administration to test the corresponding biochemical indicators. Electrocardiogram, body weight, and body temperature were determined before administration and on days 7 and 14 after administration.

[1] = Beagle dog, intragastric administration
[2] = all of the animals in the group, 1.42-3.20 g·kg^−1

## CCOc1nc2cccc(C(=O)O)c2n1Cc1ccc(-c2ccccc2-c2noc(=O)[nH]2)cc1.CCOc1nc2cccc(C(=O)[O-])c2n1Cc1ccc(-c2ccccc2-c2noc(=O)[nH]2)cc1.C[N+](C)(C)CCO [Example 2]
1.42 g·kg^−1 dosage group
  Dissection findings: the stomach was filled and contained amounts of particle food; the cardiac mucosa was red and showed sporadic red dot; other viscera did not show anomalies
1.42 g·kg^−1 dosage group, Beagle dog
  Clinical observations: liquid stools and less moving, moving reduction on day 2 after administration, the moving recovered to normal on day 3 and no abnormality was observed after day 3
2.13 g·kg^−1 dosage group, Beagle dog
  Clinical observations: on the day of administration no abnormality was observed and the animals showed vomit, moving reduction on day 2 after administration, loose stools and moving recovered on day 3, and the excreta recovered to normal on day 4 and no abnormality observed after day 4
2.13 g·kg^−1 dosage group, day 15
  Dissection findings: the stomach was filled and contained amounts of particle food; the cardiac mucosa was red and showed sporadic red dot; other viscera did not show anomalies
3.20 g·kg^−1 dosage
  Blood biochemical indicators: ALT of dogs with 3.20 g·kg^−1 dosage was increased on day 2 and recovered to normal on day 7
  Fib: increased significantly on day 2 after administration
3.20 g·kg^−1 dosage group
  Histopathology (HE, light microscope): did not show obvious anomalies
3.20 g·kg^−1 dosage group, Beagle dog
  Clinical observations: loose stools, liquid stools, vomit until the end of the observation and showed liquid stools, moving reduction on day 2 after administration, showed loose stools on day 3 and the moving recovered, the excreta recovered to normal on day 4 and no abnormality observed after that
5 animals of the two groups together
  Systolic blood pressure and diastolic blood pressure: reduced more or less on day 2 after administration
[1]
  Acute toxicity, comparison: lower than that of Azilsartan medoxomil potassium salt
  Approximate lethal dose: more than 3.20 g·kg^−1
[2]
  Body temperature: no abnormality on day 7 after administration
  Body weight: decreased on day 7 after administration compared with pre-administration
  Electrocardiogram and haematological indicators: not abnormal on day 7 after administration
All the animals of the group, after vs. pre-administration
  PT values: reduced significantly after administration compared to pre-administration
All the dogs of the group (1.42, 2.13, 3.20 g·kg^−1)
  Blood biochemical indicators: CRE, UREA and UA of all the dogs administered Example 2 compound were increased significantly on day 2 after administration, the CRE and UA increased significantly on day 7 after administration, and they recovered to normal on day 14
